Activity calls are given as the source filed them. The calls are words filed in the database; no cut-off is given here.
What was measured:
[1] = tested on: HUVEC; assay: Antiinvasive activity in HUVEC cells assessed as decrease in cell invasion at 5 to 20 nM measured after 48 hrs by transwell assay; format: functional, cell-based; settings: Homo sapiens, dose 5-20 nM
[2] = tested on: MGC-803; assay: Induction of ROS generation in human MGC-803 cells assessed as intracellular ROS level at 7.5 nM incubated for 24 hrs by DCFH-DA staining based flow cytometric analysis (reference value: 2.72 %); format: functional
[3] = tested on: HEK-293T; assay: Cytotoxicity against human HEK293T cells assessed as reduction in cell viability; format: cell-based
[4] = tested on: MGC-803; assay: Induction of apoptosis in human MGC-803 cells assessed as increase in cleaved Caspase-7 expression incubated for 24 hrs by Western blot analysis; format: functional, cell-based; settings: dose 7.5-30 nM
[5] = tested on: U-937; assay: Antiproliferative activity against human U-937 cells assessed as cell growth inhibition after 72 hrs by CCK8 assay; format: functional, cell-based; settings: U-937, 72 h
[6] = tested on: HepG2; assay: Antiproliferative activity against human HepG2 cells assessed as cell growth inhibition after 72 hrs by SRB assay; format: functional, cell-based; settings: HepG2, 72 h
[7] = tested on: MGC-803; assay: Induction of cell cycle arrest in human MGC-803 cells assessed as accumulation at G2/M phase at 30 nM incubated for 24 hrs by propidium iodide staining based flow cytometry (reference value: 37.03 %); format: functional
[8] = tested on: MGC-803; assay: Induction of apoptosis in human MGC-803 cells assessed as viable cells at 7.5 nM measured after 48 hrs by Annexin V-APC/PI double staining based flow cytometry assay (reference value: 97.1 %); format: functional, cell-based
[9] = tested on: HeLa; assay: Antiproliferative activity against human HeLa cells assessed as cell growth inhibition after 72 hrs by SRB assay; format: functional, cell-based
[10] = tested on: MGC-803; assay: Induction of apoptosis in human MGC-803 cells assessed as increase in Caspase-7 expression incubated for 24 hrs by Western blot analysis; format: functional, cell-based; settings: dose 7.5-30 nM
[11] = tested on: HUVEC; assay: Inhibition of cell migration in HUVEC cells assessed as decrease in number of migrated endothelial cells at 5 to 20 nM measured after 48 hrs by transwell analysis; format: functional, cell-based; settings: Homo sapiens, dose 5-20 nM
[12] = tested on: MGC-803; assay: Antiinvasive activity in human MGC-803 cells assessed as decrease in number of migrated MGC-803 cells at 7.5 to 30 nM measured after 48 hrs by transwell assay; format: functional, cell-based; settings: dose 7.5-30 nM
[13] = tested on: MGC-803; assay: Antiproliferative activity against human MGC-803 cells assessed as cell growth inhibition after 72 hrs by SRB assay; format: functional, cell-based; settings: MGC-803, 72 h
[14] = tested on: MGC-803; assay: Induction of cell cycle arrest in human MGC-803 cells assessed as accumulation at G2/M phase at 7.5 nM incubated for 24 hrs by propidium iodide staining based flow cytometry (reference value: 37.03 %); format: functional
[15] = tested on: HUVEC; assay: Antivascular activity against HUVEC assessed as inhibition of tube formation at 5 to 20 nM incubated for 48 hrs by […]; format: functional, cell-based; settings: Homo sapiens, dose 5-20 nM
[16] = tested on: MGC-803; assay: Induction of cell cycle arrest in human MGC-803 cells assessed as accumulation at G1 phase at 30 nM incubated for 24 hrs by propidium iodide staining based flow cytometry (reference value: 45.67 %); format: functional
[17] = species: Danio rerio; assay: Antiangiogenic activity in 30hpf transgenic Tg(flk:EGFP) zebra fish embryos assessed as reduction in number of intersegmental vessels by confocal fluorescence microscopy analysis; format: functional, organism-based; settings: Embryo, dose 0.1-0.6 µM
[18] = tested on: MGC-803; assay: Induction of cell cycle arrest in human MGC-803 cells assessed as accumulation at G1 phase at 15 nM incubated for 24 hrs by propidium iodide staining based flow cytometry (reference value: 45.67 %); format: functional
[19] = target: Tubulin (Homo sapiens) (UniProt P68371+Q9H4B7+P0DPH7+P68366+Q13509+Q71U36+P04350+Q3ZCM7+P07437+P68363+Q9BQE3+Q6PEY2+Q13885+Q9BVA1+Q9BUF5); assay: Inhibition of tubulin polymerization in human MGC-803 cells assessed as blockage of spindle formation at 30 nM measured after 48 hrs by Hoechst staining based confocal microscopy analysis; format: cell-based
[20] = tested on: MGC-803; assay: Induction of apoptosis in human MGC-803 cells assessed as late apoptotic cells at 30 nM measured after 48 hrs by Annexin V-APC/PI double staining based flow cytometry assay (reference value: 1.05 %); format: functional, cell-based
[21] = tested on: MGC-803; assay: Induction of apoptosis in human MGC-803 cells assessed as early apoptotic cells at 30 nM measured after 48 hrs by Annexin V-APC/PI double staining based flow cytometry assay (reference value: 1.31 %); format: functional, cell-based
[22] = tested on: MGC-803; assay: Induction of cell cycle arrest in human MGC-803 cells assessed as accumulation at G2/M phase at 15 nM incubated for 24 hrs by propidium iodide staining based flow cytometry (reference value: 37.03 %); format: functional
[23] = tested on: MGC-803; assay: Induction of cell cycle arrest in human MGC-803 cells assessed as accumulation at G1 phase at 7.5 nM incubated for 24 hrs by propidium iodide staining based flow cytometry (reference value: 45.67 %); format: functional
[24] = tested on: MGC-803; assay: Induction of mitochondrial membrane potential loss in human MGC-803 cells at 15 nM after 48 hrs by JC-1 staining based flow cytometric analysis (reference value: 86 %); format: functional
[25] = tested on: MGC-803; assay: Induction of mitochondrial membrane potential loss in human MGC-803 cells at 7.5 nM after 48 hrs by JC-1 staining based flow cytometric analysis (reference value: 86 %); format: functional

COc1ccc(/C=C\c2cc(OC)c(OC)c(OC)c2)cc1/C=C/C(=O)Nc1ccccc1N
inhibition [1]: Active | Activity [2]: 17.4% | IC50 [3]: 352 nM | Activity [4]: Dose-Dependent Effect | IC50 [5]: 305 nM | IC50 [6]: 26 nM | Activity [7]: Dose-Dependent Effect | Activity ([7]; record 2): 84.19% | Activity [8]: Active | IC50 [9]: 50 nM | Activity [10]: Dose-Dependent Effect | inhibition [11]: Active | Activity [12]: Active | IC50 [13]: 16 nM | Activity [14]: Dose-Dependent Effect | Activity ([14]; record 2): 43.82% | Activity [15]: Active | Activity [16]: 2.21% | Activity [17]: Dose-Dependent Effect | Activity [18]: 39.14% | inhibition [19]: Active | Activity [20]: Active | Activity [21]: Active | Activity [22]: Dose-Dependent Effect | Activity ([22]; record 2): 48.16% | Activity [23]: 43.58% | Activity [24]: 63.6% | Activity [25]: 82.9%

Source: ChEMBL document CHEMBL4828751, “Discovery of novel tubulin/HDAC dual-targeting inhibitors with strong antitumor and antiangiogenic potency” (Eur J Med Chem, 2021)
